# From paper PMC7617869, “Molecular glues that inhibit deubiquitylase activity and inflammatory signaling” (Nature Structural & Molecular Biology, 2025)
# Where “and” joins values, the source holds several entries; their conditions need not be identical. Identical values can stand only once.
# Legend:
# BRISC = target: T1, BRISC (Homo sapiens, UniProt P46736+Q15018+Q9NXR7); assay: BRISC DUB activity assay (IQF K63-linked diubiquitin); format: biochemical; conditions: for Mean: Fig. 1d; for Normalised V0: replicate columns
# T1 construct: made in house; host or cells: Spodoptera frugiperda (Sf9) insect cells, MultiBac
# Method: IQF assays were performed in DUB reaction buffer containing 50 mM HEPES–NaOH pH 7.0, 100 mM NaCl, 0.1 mg ml^−1 BSA, 1 mM DTT and 0.03% v/v Brij-35. […] The final concentration of BRISC WT, all BRISC mutants, HsBRISCΔLoop, MmBRISC and DrBRISCΔNΔC was 1 nM. Other enzymes were tested at the following concentrations: 5 nM ARISC (FL), 10 nM CfBRISCΔNΔC, 250 nM AMSH* (ref. [43]), 500 nM USP2 and 1 μM trypsin (Sigma, 9002-07-7). For Michaelis–Menten experiments, 1 nM BRISC with 0–1 μM IQF K63-linked diubiquitin substrate was used. Michaelis–Menten analyses and Lineweaver–Burk plots were calculated using GraphPad Prism (version 9.0).
# To assess enzymatic activity, BRISC complexes were diluted to concentrations between 1 nM and 50 nM. […] Then, 20-μl enzyme reactions were carried out in 384-well black flat-bottom low-flange plates (Corning, 35373). DUB activity was measured using IQF K63-linked diubiquitin (LifeSensors, DU6303) at 50 nM. Cleaved diubiquitin was monitored by measuring fluorescence intensity (excitation, 544 nm; emission, 575 nm; dichroic mirror, 560 nm). Fluorescence intensity was measured every minute for 30 min at 30 °C. Fluorescence intensity units were plotted against time to generate a linear reaction progress curve, where the initial velocity (V0) corresponds to the gradient of the curve (typically achieved within 15 min). IC50 values were calculated using the GraphPad Prism (version 9.0) built-in dose–response equation for inhibitor concentration versus response (variable slope).
# BRISC (FL) = target: T2, BRISC (FL) (Homo sapiens, UniProt P46736+Q15018+Q9NXR7); assay: In-gel deubiquitylation assay, TAMRA-labeled K63-tetraubiquitin, BRISC; format: biochemical; conditions: 10 μM or 100 μM inhibitor
# T2 construct: full-length BRISC (FL), ARISC (FL); made in house; host or cells: Spodoptera frugiperda Sf9 insect cells (MultiBac)
# Method: The inhibitor capzimin (Merck) was diluted in 1 mM DTT and incubated for 30 min at room temperature to reduce disulfide bonds required for inhibitor activity. […] DUBs were incubated with 750 nM TAMRA-labeled K63-tetraubiquitin (LifeSensors, SI6304T) for 10 min at 30 °C. Reactions were quenched by adding 2.5 μl of 4× SDS–PAGE loading dye (240 mM Tris-HCl pH 6.8, 40% v/v glycerol, 8% w/v SDS, 0.04% w/v bromophenol blue and 5% v/v β-mercaptoethanol). The samples were resolved on 4–12% NuPAGE Bis–Tris gels (Thermo Fisher Scientific). Gels were scanned using an iBright FL 1500 (Thermo Fisher Scientific) (excitation, 515–545 nm; emission, 568–617 nm; exposure, 500 ms).
# BRISC–SHMT2 interaction = target: T3, BRISC–SHMT2 interaction (Homo sapiens, UniProt P46736+Q15018+Q9NXR7); assay: Dianthus spectral shift binding assay (BRISC–SHMT2); conditions: labelled BRISC preincubated with 100 μM compound
# T3 construct: His (tag of the complex); made in house
# Method: Site-specific labeling of His-tagged BRISC was performed using a RED-Tris-NTA second-generation labeling kit (NanoTemper Technologies) in buffer containing 25 mM HEPES pH 7.5, 150 mM NaCl, 1 mM DTT and 0.005% Tween-20. First, 100 nM His–BRISC was incubated with 25 nM RED-Tris-NTA dye and prepared according to the Nanotemper protocol. […] The reactions were carried out in 384-well Dianthus microplates (Nanotemper Technologies) with a 20-μl reaction volume. The measurements were performed using autoexcitation on a Dianthus NT.23 instrument at 25 °C using DI.Control software (version 2.1.1; Nanotemper Technologies). Data were analyzed using DI.Screening Analysis software (version 2.1.1; Nanotemper Technologies) and plotted in GraphPad Prism (version 10.1.0). KD values were determined using a GraphPad Prism built-in equation for total binding (one site).
smiles,measurement,setting,value
O=C(NC1CCN(C(=O)c2c(Cl)cccc2Cl)CC1)c1n[nH]cc1NC(=O)c1c(Cl)cccc1Cl [AP-5-144],Mean,BRISC; log[compound (μM)] 0.1931,1.0068
same,Mean,BRISC; log[compound (μM)] 0.4942,1.0306
same,Mean,BRISC; log[compound (μM)] 0.7959,0.9990
same,Mean,BRISC; log[compound (μM)] 1.0969,1.0116
same,Mean,BRISC; log[compound (μM)] 1.3979,0.9713
same,Mean,BRISC; log[compound (μM)] 1.6990,1.1388
same,Mean,BRISC; log[compound (μM)] 2.0000,1.0728
same,Mean,BRISC; log[compound (μM)] 2.3010,1.1033
same,Mean,BRISC; log[compound (μM)] -0.1079,1.1343
same,Mean,BRISC; log[compound (μM)] -0.4089,1.1217
same,Mean,BRISC; log[compound (μM)] -0.7212,1.1333
same,Mean,BRISC; log[compound (μM)] -1.7212,1.0000
same,inhibition of BRISC DUB activity (in words),BRISC; IQF diubiquitin assay,did not inhibit
same,Normalised V0,BRISC; [Inhibitor] 0.013 μM,0.9578 and 1.102 and 0.7959 and 1.072
same,Normalised V0,BRISC; [Inhibitor] 0.02 μM,0.8824 and 1.105
same,Normalised V0,BRISC; [Inhibitor] 0.0399999 μM,1.048 and 1.358
same,Normalised V0,BRISC; [Inhibitor] 0.0599997 μM,0.9169 and 1.23
same,Normalised V0,BRISC; [Inhibitor] 0.0799994 μM,1.0394 and 1.173
same,Normalised V0,BRISC; [Inhibitor] 0.119998 μM,0.856 and 0.7489
same,Normalised V0,BRISC; [Inhibitor] 0.199996 μM,0.9661 and 1.115
same,Normalised V0,BRISC; [Inhibitor] 0.499975 μM,0.9387 and 1.144
same,Normalised V0,BRISC; [Inhibitor] 0.799936 μM,0.8532 and 1.098
same,Normalised V0,BRISC; [Inhibitor] 1.25984 μM,0.9637 and 1.032
same,Normalised V0,BRISC; [Inhibitor] 1.9996 μM,0.7701 and 1.137
same,Normalised V0,BRISC; [Inhibitor] 3.159 μM,0.887 and 1.055
same,Normalised V0,BRISC; [Inhibitor] 5.19739 μM,0.7796 and 1.219
same,Normalised V0,BRISC; [Inhibitor] 7.99364 μM,0.912 and 1.161
same,Normalised V0,BRISC; [Inhibitor] 12.7839 μM,0.972 and 1.143
same,Normalised V0,BRISC; [Inhibitor] 19.96 μM,0.9311 and 1.165
same,Normalised V0,BRISC; [Inhibitor] 31.4999 μM,0.8747 and 1.168
same,Normalised V0,BRISC; [Inhibitor] 50.147 μM,0.908 and 1.016
same,Normalised V0,BRISC; [Inhibitor] 79.7601 μM,0.7753 and 1.257
same,Normalised V0,BRISC; [Inhibitor] 125.99 μM,0.9194 and 0.97
same,Normalised V0,BRISC; [Inhibitor] 199.922 μM,0.8606 and 0.9293
same,inhibition of BRISC cleavage of K63-linked tetraubiquitin,BRISC (FL),did not inhibit
same,Ratio 670 nm/650 nm,BRISC–SHMT2 interaction; SHMT2 0.00140381 μM,1.077 and 1.081 and 1.064
same,Ratio 670 nm/650 nm,BRISC–SHMT2 interaction; SHMT2 0.00280762 μM,1.075 and 1.068 and 1.082
same,Ratio 670 nm/650 nm,BRISC–SHMT2 interaction; SHMT2 0.00561523 μM,1.073 and 1.081 and 1.075
same,Ratio 670 nm/650 nm,BRISC–SHMT2 interaction; SHMT2 0.0112305 μM,1.064 and 1.071 and 1.065
same,Ratio 670 nm/650 nm,BRISC–SHMT2 interaction; SHMT2 0.0224609 μM,1.049 and 1.052
same,Ratio 670 nm/650 nm,BRISC–SHMT2 interaction; SHMT2 0.0449219 μM,1.026 and 1.035 and 1.037
same,Ratio 670 nm/650 nm,BRISC–SHMT2 interaction; SHMT2 0.0898438 μM,1.012 and 1.013 and 1.006
same,Ratio 670 nm/650 nm,BRISC–SHMT2 interaction; SHMT2 0.179688 μM,0.993 and 0.976 and 0.943
same,Ratio 670 nm/650 nm,BRISC–SHMT2 interaction; SHMT2 0.359375 μM,0.948 and 0.935 and 0.925
same,Ratio 670 nm/650 nm,BRISC–SHMT2 interaction; SHMT2 0.71875 μM,0.903 and 0.887 and 0.836
same,Ratio 670 nm/650 nm,BRISC–SHMT2 interaction; SHMT2 1.4375 μM,0.863 and 0.84 and 0.841
same,Ratio 670 nm/650 nm,BRISC–SHMT2 interaction; SHMT2 2.875 μM,0.823 and 0.805 and 0.806
same,Ratio 670 nm/650 nm,BRISC–SHMT2 interaction; SHMT2 5.75 μM,0.792 and 0.756 and 0.785
same,Ratio 670 nm/650 nm,BRISC–SHMT2 interaction; SHMT2 11.5 μM,0.776 and 0.777 and 0.775
same,Ratio 670 nm/650 nm,BRISC–SHMT2 interaction; SHMT2 23 μM,0.77 and 0.773 and 0.777
same,Ratio 670 nm/650 nm,BRISC–SHMT2 interaction; SHMT2 46 μM,0.768 and 0.78 and 0.777
